One data set has as its target T1, GR (Homo sapiens, UniProt P04150).
T1 construct: expressed in transfected cells; host or cells: CHO-K1
T1 sequence (P04150 1-777): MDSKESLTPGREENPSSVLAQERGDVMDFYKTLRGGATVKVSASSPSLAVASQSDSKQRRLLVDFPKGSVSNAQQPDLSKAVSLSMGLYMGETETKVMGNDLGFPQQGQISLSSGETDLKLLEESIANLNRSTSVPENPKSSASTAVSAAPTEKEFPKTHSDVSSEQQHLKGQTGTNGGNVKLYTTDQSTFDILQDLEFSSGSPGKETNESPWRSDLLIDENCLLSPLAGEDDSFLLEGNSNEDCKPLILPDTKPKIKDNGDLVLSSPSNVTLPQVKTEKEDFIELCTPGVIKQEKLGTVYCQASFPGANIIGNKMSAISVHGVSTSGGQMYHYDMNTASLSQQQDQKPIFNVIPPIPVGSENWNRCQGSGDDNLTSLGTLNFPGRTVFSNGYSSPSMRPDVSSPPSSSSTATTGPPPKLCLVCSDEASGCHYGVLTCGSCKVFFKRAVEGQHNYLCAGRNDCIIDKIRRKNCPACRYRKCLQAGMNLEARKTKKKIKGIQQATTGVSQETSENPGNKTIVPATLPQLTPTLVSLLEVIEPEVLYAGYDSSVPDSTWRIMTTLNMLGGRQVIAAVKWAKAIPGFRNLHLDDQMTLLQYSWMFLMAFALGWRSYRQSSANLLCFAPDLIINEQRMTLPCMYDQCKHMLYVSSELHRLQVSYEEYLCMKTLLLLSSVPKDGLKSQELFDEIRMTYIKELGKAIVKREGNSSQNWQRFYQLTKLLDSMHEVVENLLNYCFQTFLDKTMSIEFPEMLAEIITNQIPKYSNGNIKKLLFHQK
The data set can be described thus: In Vitro GR Luciferase Reporter Assay (antagonist mode, CHO-K1-GR-MMTV-Luc reporter cells). Format: cell-based. The procedure, abridged: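 Antagonist mode: compounds (8 serial 1:5 dilutions) added to GR-MMTV-luciferase CHO-K1 reporter cells co-exposed to 10 nM dexamethasone final, in phenol red-free DMEM plus 10% CSS. After roughly 18-24 h at 37° C, OneGlo luminescence read and IC50 calculated.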

The next data set deals with T2, CYP2C8 (Homo sapiens, UniProt P10632).
T2 construct: Pooled human microsomes were obtained from Sekisui XenoTech, KS; tissue Sekisui XenoTech, KS; host or cells: pooled human liver microsomes
T2 sequence (P10632 1-490): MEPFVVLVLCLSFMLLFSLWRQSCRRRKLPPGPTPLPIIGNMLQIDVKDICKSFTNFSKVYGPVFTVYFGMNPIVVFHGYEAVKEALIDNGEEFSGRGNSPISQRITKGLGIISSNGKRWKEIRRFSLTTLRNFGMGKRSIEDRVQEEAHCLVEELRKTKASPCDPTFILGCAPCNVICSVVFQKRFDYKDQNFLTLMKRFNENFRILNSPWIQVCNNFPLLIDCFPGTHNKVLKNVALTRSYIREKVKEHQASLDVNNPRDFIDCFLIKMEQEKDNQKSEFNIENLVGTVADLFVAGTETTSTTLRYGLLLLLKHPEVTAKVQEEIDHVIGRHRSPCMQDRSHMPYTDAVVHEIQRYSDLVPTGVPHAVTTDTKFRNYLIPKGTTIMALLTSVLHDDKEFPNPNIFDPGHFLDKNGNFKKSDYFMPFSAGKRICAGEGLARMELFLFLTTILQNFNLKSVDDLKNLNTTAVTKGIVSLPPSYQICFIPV
Put plainly: CYP Inhibition Assay (CYP2C8, human liver microsomes, paclitaxel substrate). Format: in vitro ADME. Conditions: pH 7.4; pooled human liver microsomes 0.1 mg/mL, probe substrate paclitaxel. How it is done:
Example B: CYP Inhibition Assay
Objective: To assess the % inhibition of test compounds against CYP2C8 enzyme in human liver microsomes.
Pooled human microsomes were obtained from Sekisui XenoTech, KS, and were used for in vitro assessment of compound inhibitory potential of the major drug metabolizing human CYP enzymes.
Test compounds were dissolved in DMSO as 10 mM stock solutions and diluted to 200 µM in acetonitrile as working solutions. The total concentrations of DMSO and acetonitrile were 0.02% and 0.5%, respectively, in the assay.
The assay was performed in duplicate in a 96-well plate. The reaction mixture ([…]) containing a final concentration of 0.1 mg/mL pooled human liver microsomes, 50 mM potassium phosphate, pH 7.4 buffer, was re-warmed at 37° C. for 5 minutes. The reaction was initiated with NADPH solution which was at 1 mM final concentration, and carried out for 5 minutes at 37° C. It was terminated by the addition of 3-fold volume of quench solution (1:1 acetonitrile:methanol with 0.1% formic acid and the internal standard of tolbutamide). The sample was vortexed, centrifuged at 4,000 rpm for 15 min at 4° C. The incubation in the presence of vehicle (0.02% DMSO and 0.5% acetonitrile) was used as the enzyme activity control. The analyses of metabolite 6α-hydroxypaclitaxel in supernatant was performed with LC-MS/MS method (Sciex API 4500 Qtrap coupled to a Shimadzu LC-20AD HPLC).
The CYP enzyme activity was determined based on the formation of 6a-hydroxypaclitaxel metabolite. The % inhibition was calculated using this equation: % Inhibition=100×(1−Ainactivator/Avehicle), where Ainactivator is the CYP enzyme activity in the presence of test compound, and Avehicle is the CYP activity in the presence of vehicle.

[1] abbreviates: antagonist mode, 10 nM Dexamethasone.
[2] abbreviates: antagonist assay with 10 nM Dexamethasone, 18-24 hours.

In turn, `CN(C(=O)[C@H]1CCC2=Cc3c(cnn3-c3ccc(F)cc3)C[C@]2(C(=O)c2cc(C(F)(F)F)ccn2)C1)c1cnn(C)c1` (single isomer, unassigned) [Example 122] showed a half-inhibitory concentration (IC50) at GR (setting [1]) of no more than 100 nM. At CYP2C8, this compound gave an inhibition at 5 min of no more than 25%.

As to `CN([C@H]1CCC2=Cc3c(cnn3-c3ccc(F)cc3)C[C@]2(C(=O)c2ccccn2)C1)S(=O)(=O)c1ccc(Cl)cc1` [Example 4, 4-Chloro-N-((4aS,6S)-1-(4-fluorophenyl)-4a-picolinoyl-4,4a,5,6,7,8-hexahydro-1H-benzo[f]indazol-6-yl)-N-methylbenzenesulfonamide], the IC50 on GR (setting [2]) is no more than 100 nM. Besides, the inhibition at 5 min against CYP2C8 fell in the range of 50 to 75%.

As for `CCn1ncc(S(=O)(=O)[C@H]2CCC3=Cc4c(cnn4-c4ccc(F)cc4)C[C@]3(C(=O)c3cc(C(F)(F)F)ccn3)C2)n1` [Example 52, ((4aS,6S)-6-((2-ethyl-2H-1,2,3-triazol-4-yl)sulfonyl)-1-(4-fluorophenyl)-1,4,5,6,7,8-hexahydro-4aH-benzo[f]indazol-4a-yl)(4-(trifluoromethyl)pyridin-2-yl)methanone], the IC50 on GR (setting [2]) is no more than 100 nM. In addition, the inhibition at 5 min on CYP2C8 fell in the range of 75 to 90%.

On GR (setting [2]), `O=C(c1ccc(C(F)(F)F)cn1)[C@]12Cc3cnn(-c4ccc(F)cc4)c3C=C1CC[C@H](S(=O)(=O)c1ccc(F)cc1)C2` [Example 55, ((4aS,6S)-1-(4-fluorophenyl)-6-((4-fluorophenyl)sulfonyl)-1,4,5,6,7,8-hexahydro-4aH-benzo[f]indazol-4a-yl)(5-(trifluoromethyl)pyridin-2-yl)methanone] showed an IC50 of no more than 100 nM. Further, the inhibition at 5 min against CYP2C8 is no more than 25%.

With `CC(C)n1ncc(S(=O)(=O)[C@H]2CCC3=Cc4c(cnn4-c4ccc(F)cc4)C[C@]3(C(=O)c3cc(C(F)(F)F)ccn3)C2)n1` [Example 56, ((4aS,6S)-1-(4-fluorophenyl)-6-((2-isopropyl-2H-1,2,3-triazol-4-yl)sulfonyl)-1,4,5,6,7,8-hexahydro-4aH-benzo[f]indazol-4a-yl)(4-(trifluoromethyl)pyridin-2-yl)methanone], the IC50 on GR (setting [2]) was no more than 100 nM. The inhibition at 5 min at CYP2C8 lay within 75 to 90%.

For `Cn1cc(S(=O)(=O)[C@H]2CCC3=Cc4c(cnn4-c4ccc(F)cc4)C[C@]3(C(=O)c3ccc(C(F)(F)F)cn3)C2)cn1` [Example 69, ((4aS,6S)-1-(4-fluorophenyl)-6-((1-methyl-1H-pyrazol-4-yl)sulfonyl)-1,4,5,6,7,8-hexahydro-4aH-benzo[f]indazol-4a-yl)(5-(trifluoromethyl)pyridin-2-yl)methanone], the IC50 at GR (setting [2]) was no more than 100 nM. Moreover, on CYP2C8, the inhibition at 5 min is no more than 25%.

As to `CN([C@H]1CCC2=Cc3c(cnn3-c3ccc(F)cc3)C[C@]2(C(=O)c2cc(C(F)(F)F)ccn2)C1)S(=O)(=O)c1cnn(C)c1` [Example 81, N-((4aS,6S)-1-(4-fluorophenyl)-4a-(4-(trifluoromethyl)picolinoyl)-4,4a,5,6,7,8-hexahydro-1H-benzo[f]indazol-6-yl)-N,1-dimethyl-1H-pyrazole-4-sulfonamide], the IC50 against GR (setting [2]) is no more than 100 nM. At CYP2C8, the inhibition at 5 min lay within 25 to 50%.

`CN([C@H]1CCC2=Cc3c(cnn3-c3ccc(F)cc3)C[C@]2(C(=O)c2cc(C(F)(F)F)ccn2)C1)S(=O)(=O)c1cnn(C)n1` [Example 90, N-((4aS,6S)-1-(4-fluorophenyl)-4a-(4-(trifluoromethyl)picolinoyl)-4,4a,5,6,7,8-hexahydro-1H-benzo[f]indazol-6-yl)-N,2-dimethyl-2H-1,2,3-triazole-4-sulfonamide] showed an IC50 against GR (setting [2]) of no more than 100 nM. The compound further came in with an inhibition at 5 min on CYP2C8 of 50 to 75%.

In the case of `Cn1cnc(S(=O)(=O)N(CCF)[C@H]2CCC3=Cc4c(cnn4-c4ccc(F)cc4)C[C@]3(C(=O)c3ncc(C(F)(F)F)s3)C2)n1` [Example 112, N-(2-Fluoroethyl)-N-((4aS,6S)-1-(4-fluorophenyl)-4a-(5-(trifluoromethyl)thiazole-2-carbonyl)-4,4a,5,6,7,8-hexahydro-1H-benzo[f]indazol-6-yl)-1-methyl-1H-1,2,4-triazole-3-sulfonamide], the inhibition at 5 min at CYP2C8 fell in the range of 75 to 90%.

On GR (setting [1]), `O=C(c1cc(C(F)(F)F)ccn1)[C@]12Cc3cnn(-c4ccc(F)cc4)c3C=C1CC[C@H](N(CC(F)F)S(=O)(=O)c1ccc(F)cc1)C2` [Example 407, N-(2,2-difluoroethyl)-4-fluoro-N-((4aS,6S)-1-(4-fluorophenyl)-4a-(4-(trifluoromethyl)picolinoyl)-4,4a,5,6,7,8-hexahydro-1H-benzo[f]indazol-6-yl)benzenesulfonamide] registered an IC50 of no more than 100 nM.

As for `Cn1ccc(S(=O)(=O)N([C@H]2CCC3=Cc4c(cnn4-c4ccc(F)cc4)C[C@]3(C(=O)c3ncc(C(F)(F)F)s3)C2)[C@H]2C[C@@H](C#N)C2)n1` [Example 408, N-((1s,3R)-3-cyanocyclobutyl)-N-((4aS,6S)-1-(4-fluorophenyl)-4a-(5-(trifluoromethyl)thiazole-2-carbonyl)-4,4a,5,6,7,8-hexahydro-1H-benzo[f]indazol-6-yl)-1-methyl-1H-pyrazole-3-sulfonamide], the half-maximal inhibitory concentration (IC50) against GR (setting [1]) is no more than 100 nM.

At GR (setting [1]), `Cn1cnc(S(=O)(=O)N(CC2CC2)[C@H]2CCC3=Cc4c(cnn4-c4ccc(F)cc4)C[C@]3(C(=O)c3cc(F)ccn3)C2)n1` [Example 409, N-(cyclopropylmethyl)-N-((4aS,6S)-1-(4-fluorophenyl)-4a-(4-fluoropicolinoyl)-4,4a,5,6,7,8-hexahydro-1H-benzo[f]indazol-6-yl)-1-methyl-1H-1,2,4-triazole-3-sulfonamide] yielded an IC50 of no more than 100 nM.

As for `Cn1cnc(S(=O)(=O)N(CC2CC2)[C@H]2CCC3=Cc4c(cnn4-c4ccc(F)cc4)C[C@]3(C(=O)c3cc(Cl)ccn3)C2)n1` [Example 410, N-((4aS,6S)-4a-(4-chloropicolinoyl)-1-(4-fluorophenyl)-4,4a,5,6,7,8-hexahydro-1H-benzo[f]indazol-6-yl)-N-(cyclopropylmethyl)-1-methyl-1H-1,2,4-triazole-3-sulfonamide], the IC50 at GR (setting [1]) is no more than 100 nM.

Take `Cn1cc(S(=O)(=O)N(C2CC(F)(F)C2)[C@H]2CCC3=Cc4c(cnn4-c4ccc(F)cc4)C[C@]3(C(=O)c3cc(C(F)(F)F)ccn3)C2)cn1` [Example 411, N-(3,3-difluorocyclobutyl)-N-((4aS,6S)-1-(4-fluorophenyl)-4a-(4-(trifluoromethyl)picolinoyl)-4,4a,5,6,7,8-hexahydro-1H-benzo[f]indazol-6-yl)-1-methyl-1H-pyrazole-4-sulfonamide]: the IC50 on GR (setting [1]) is no more than 100 nM.

The values are drawn from patent publication US20210122730A1, “GLUCOCORTICOID RECEPTOR MODULATORS” (ORIC Pharmaceuticals, Inc., priority 2017, published 2021).
